Assay results published in US20240384268A1, “Oligonucleotides” (Hudson Institute of Medical Research, priority 2021, published 2024).
In the oligonucleotide strings, read from the 5' end, every base follows the letter of its sugar. An asterisk marks phosphorothioate; unmarked linkages are phosphodiester. Other units and linkages are bracketed, terminal groups are in braces. A string of capitals states the bases alone. d = 2'-deoxy (DNA); m = 2'-O-methyl

Tests used:
Type in all cases: cell-based
cGAS [1] = biological target: T1, cGAS (Homo sapiens, UniProt Q8N884); experiment: ISD70-driven IP-10 (and IFN-β) production in THP-1 cells, ELISA; set-up: endogenous in cells; host or cells: THP-1 (undifferentiated); conditions: THP-1; 2′OMe or PS oligos, 100-250 nM, pre-treatment as in figure legends; ISD70 2.5 μg/ml
T1 sequence (Q8N884 whole entry): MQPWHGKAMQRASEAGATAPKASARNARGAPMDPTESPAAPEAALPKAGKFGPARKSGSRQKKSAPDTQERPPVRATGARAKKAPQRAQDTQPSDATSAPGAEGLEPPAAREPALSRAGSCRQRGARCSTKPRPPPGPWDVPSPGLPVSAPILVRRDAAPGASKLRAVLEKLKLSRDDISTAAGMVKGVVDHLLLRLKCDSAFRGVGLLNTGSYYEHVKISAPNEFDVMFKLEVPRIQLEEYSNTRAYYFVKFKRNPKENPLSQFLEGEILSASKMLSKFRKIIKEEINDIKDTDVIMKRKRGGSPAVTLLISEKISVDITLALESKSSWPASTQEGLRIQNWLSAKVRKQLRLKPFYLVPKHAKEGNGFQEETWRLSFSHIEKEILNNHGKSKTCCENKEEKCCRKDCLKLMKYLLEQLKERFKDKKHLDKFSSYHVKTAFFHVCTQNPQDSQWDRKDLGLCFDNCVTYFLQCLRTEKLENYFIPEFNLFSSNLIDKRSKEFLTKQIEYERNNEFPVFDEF
Protocol: The ability of an oligonucleotide to inhibit cGAS activity can, for example, be analysed by incubating cells which express cGAS with an oligonucleotide, then stimulating said cells with a cGAS agonist (e.g., 70-bp interferon stimulating DNA or ISD70; 45-bp interferon stimulating DNA or ISD45), and analysing the overall cGAS response in the cell population, or analysing the proportion of cells having cGAS-positive activity after a defined period of time.
(§1) In such examples, inhibition of cGAS activity can be identified by observation of an overall decreased cGAS response of the cell population, or a lower proportion of cells having cGAS-positive activity as compared to positive control condition in which cells are treated with cGAS agonist in the absence of the oligonucleotide (or in the presence of an appropriate control inhibitory agent). In one example, THP-1 or HT-29 cells are transfected with ISD70 and incubated with an oligonucleotide. cGAS activity can then be determined by cytokine (e.g., IP-10 and/or IFNβ) expression (e.g., gene and/or protein expression) and/or secretion levels, such as by ELISA. A similar assay can be performed with LL171 cells transfected with ISD45. […] By way of example, cGAS enzymatic activity may be assessed in vitro using recombinant cGAS and then measuring activity thereof by way of a cGAMP ELISA.
(§2) For cGAS stimulations, cells were treated for indicated duration with ASOs, prior to transfection with ISD70 (human cells) or ISD45 (mouse cells) (the ASOs were not washed off prior to ISD transfection unless otherwise indicated). The cGAS ligands ISD45 (Stetson and Medzhitov, 2006) and ISD70 (also known as VACV-70 (Unterholzner et al., 2010)) (Table 1) were resuspended as follows: 5 1d of sense and 5 μl of antisense strands at 10 μg/μl were added to 90 μl PBS under sterile conditions, heated at 75° C. for 30 min, prior to letting cool down at room temperature and aliquoting (stock at 1 μg/1 l). The ISDs were transfected at a concentration of […] at a ratio of 1 μg:1 μl with Lipofectamine 2000 in Opti-MEM (Thermo Fisher Scientific). HEK-TLR3, HEK-TLR7 and […] were treated with indicated concentration of ASOs for 20-50 min, prior to stimulation with poly(I:C) (Invivogen), R848 (Invivogen), Motolimod (MedChemExpress) and the Class B CpG oligonucleotides ODN 2006 (synthesised by IDT and resuspended in RNase-free TE buffer [Table 1]), respectively. The TLR2/1 agonist PAM3CSK4 (Invivogen), the TLR4 agonist lipopolysaccharide (Invivogen), the Class B CpG oligonucleotides ODN 1826 (synthesised by IDT and resuspended in RNase-free TE buffer), the mouse Sting agonist DMXAA (Cayman) and the human STING agonist (compound #3 from (Raanjulu et al., 2018), referred to as GSK herein—kind gift from Cancer Therapeutics CRC, Australia) were used at indicated concentrations. Aspirin (Sigma—A2093) was resuspended in pure medium to 10 mM, filter sterilised and added to the cells at 2 mM final. All ASOs were synthesised by Integrated DNA Technologies (IDT), and resuspended in RNase-free TE buffer, pH 8.0 (Thermo Fisher Scientific). Cell viability was assessed by adding 1× fresh resazurin solution to the wells (10λ solution made up with 7 mg resazurin [Sigma—R7017] dissolved in 3.5 ml PBS, sterile filtered at […]) for 4 h, prior to reading at with a Fluostar OPTIMA (BMG LABTECH) plate-reader (fluorescence: Excitation 535 nm, Emission 590); wells with medium only and 1× resazurin were used as blanks.

mouse cGAS = biological target: T2, mouse cGAS (Mus musculus, UniProt Q8C6L5); experiment: ISD45-driven ISRE-luciferase in mouse LL171 cells; conditions: 2′OMe or PS oligos 50-600 nM, ISD45 2.5 μg/ml overnight
T2 construct: endogenous in cells; host or cells: LL171 (mouse L929 cells with ISRE-Luciferase)
T2 sequence (Q8C6L5 whole entry): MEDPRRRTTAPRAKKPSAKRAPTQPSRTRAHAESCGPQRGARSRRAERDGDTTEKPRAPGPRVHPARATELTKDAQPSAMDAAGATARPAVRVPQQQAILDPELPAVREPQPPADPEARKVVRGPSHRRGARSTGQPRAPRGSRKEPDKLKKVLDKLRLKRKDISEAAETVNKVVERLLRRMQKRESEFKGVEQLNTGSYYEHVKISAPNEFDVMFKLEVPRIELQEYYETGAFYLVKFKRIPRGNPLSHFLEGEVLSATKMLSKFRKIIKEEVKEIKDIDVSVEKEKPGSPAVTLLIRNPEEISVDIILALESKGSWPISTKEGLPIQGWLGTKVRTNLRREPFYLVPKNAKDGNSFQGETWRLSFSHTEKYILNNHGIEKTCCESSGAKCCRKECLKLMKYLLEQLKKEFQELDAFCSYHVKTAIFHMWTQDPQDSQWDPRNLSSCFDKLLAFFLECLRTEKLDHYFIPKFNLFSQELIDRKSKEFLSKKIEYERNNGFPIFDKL
Protocol: as §1, §2
Following transfection, the cells were collected from the 6-wells and aliquoted into 96-wells, just before ASO and overnight TLR stimulation (as above described).

cGAS [2] = biological target: T1, cGAS; experiment: ISD70-driven IP-10 production in HT-29 cells, ELISA; set-up: endogenous in cells; conditions: ISD70 24 h; for effect on ISD70-induced IP-10 production at increased doses (in words): ASO overnight at 250 or 500 nM; for effect on ISD70-induced IP-10 production at low dose (in words): ASO overnight at 125 nM (62.5-125 nM)
Protocol: as §1, §2
Human IP-10 and IFN-β levels were measured using supernatants from the different cultures and were quantified using IP-10 (BD Biosciences, #550926) or IFN-β (PBL assay science, #41415-1) ELISA kits respectively, according to the manufacturers' protocol. Tetramethylbenzidine substrate (Thermo Fisher Scientific) was used for quantification of the cytokines on a Fluostar OPTIMA (BMG LABTECH) plate-reader.

human TLR9 = biological target: T3, human TLR9 (Homo sapiens, UniProt Q9NR96); experiment: HEK-TLR9 NF-κB-luciferase reporter, ODN2006 stimulation; conditions: HEK-TLR9; 500 nM 2′OMe or PS oligos; 200 nM ODN2006
T3 construct: HA; host or cells: 293XL-hTLR9-HA (HEK293)
T3 sequence (Q9NR96 26-1032): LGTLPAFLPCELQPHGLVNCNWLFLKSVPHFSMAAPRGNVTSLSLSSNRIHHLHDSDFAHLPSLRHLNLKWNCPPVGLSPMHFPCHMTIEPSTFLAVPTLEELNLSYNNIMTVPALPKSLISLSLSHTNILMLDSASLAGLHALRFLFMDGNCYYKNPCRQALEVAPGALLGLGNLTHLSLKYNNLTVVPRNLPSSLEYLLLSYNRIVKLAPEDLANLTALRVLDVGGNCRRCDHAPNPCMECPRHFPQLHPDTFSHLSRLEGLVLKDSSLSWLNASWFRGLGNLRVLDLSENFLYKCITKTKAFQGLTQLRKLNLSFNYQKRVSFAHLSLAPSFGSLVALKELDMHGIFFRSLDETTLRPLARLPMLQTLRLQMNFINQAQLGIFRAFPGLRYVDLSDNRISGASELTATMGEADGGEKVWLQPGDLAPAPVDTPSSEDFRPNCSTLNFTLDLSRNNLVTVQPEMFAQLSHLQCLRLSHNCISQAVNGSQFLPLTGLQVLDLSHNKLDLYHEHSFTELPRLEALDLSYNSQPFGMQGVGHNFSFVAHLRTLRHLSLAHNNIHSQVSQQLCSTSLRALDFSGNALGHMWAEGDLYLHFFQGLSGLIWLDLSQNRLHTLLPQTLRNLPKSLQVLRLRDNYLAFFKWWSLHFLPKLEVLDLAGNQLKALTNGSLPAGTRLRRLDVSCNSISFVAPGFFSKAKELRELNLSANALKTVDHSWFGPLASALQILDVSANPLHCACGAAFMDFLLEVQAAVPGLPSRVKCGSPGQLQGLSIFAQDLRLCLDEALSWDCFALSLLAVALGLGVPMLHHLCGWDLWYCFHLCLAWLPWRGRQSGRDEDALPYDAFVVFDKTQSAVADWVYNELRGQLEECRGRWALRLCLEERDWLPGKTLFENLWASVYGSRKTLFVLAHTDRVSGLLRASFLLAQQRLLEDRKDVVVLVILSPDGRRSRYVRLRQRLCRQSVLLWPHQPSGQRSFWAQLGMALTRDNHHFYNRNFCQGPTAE
Protocol: In such examples, inhibition of TLR9 activity can be identified by observation of an overall decreased TLR9 response of the cell population, or a lower proportion of cells having TLR9-positive activity as compared to positive control condition in which cells are treated with TLR9 agonist in the absence of the oligonucleotide (or in the presence of an appropriate control inhibitory agent). In one example, HEK cells are transfected with TLR9 and a NF-κB reporter and incubated with an oligonucleotide and then stimulated with a TLR9 agonist. TLR9 activity can then be determined by a luciferase assay. TLR9 activity can also be analysed by measuring cytokine levels (e.g., IFN, IL-6, TNF and IL-12), for example by ELISA.
as §2
Following transfection, the cells were collected from the 6-wells and aliquoted into 96-wells, just before ASO and overnight TLR stimulation (as above described). Similarly, the LL171 cells expressing and ISRE-Luc reporter were treated overnight. The next day, the cells were lysed in 40 μl (for a 96-well plate) of 1× Glo Lysis buffer (Promega) for 10 min at room temperature. […] was then subjected to firefly luciferase assay using 40 μl of Luciferase Assay Reagent (Promega). Luminescence was quantified with a Fluostar OPTIMA (BMG LABTECH) luminometer.

TLR3 = biological target: T4, TLR3 (Homo sapiens, UniProt O15455); experiment: HEK-TLR3 NF-κB-luciferase reporter, poly(I:C) stimulation; set-up: host or cells: HEK-Blue hTLR3 (HEK293); conditions: 100 nM ASOs/ODNs, poly(I:C) 0.5 μg/ml
T4 sequence (O15455 24-904): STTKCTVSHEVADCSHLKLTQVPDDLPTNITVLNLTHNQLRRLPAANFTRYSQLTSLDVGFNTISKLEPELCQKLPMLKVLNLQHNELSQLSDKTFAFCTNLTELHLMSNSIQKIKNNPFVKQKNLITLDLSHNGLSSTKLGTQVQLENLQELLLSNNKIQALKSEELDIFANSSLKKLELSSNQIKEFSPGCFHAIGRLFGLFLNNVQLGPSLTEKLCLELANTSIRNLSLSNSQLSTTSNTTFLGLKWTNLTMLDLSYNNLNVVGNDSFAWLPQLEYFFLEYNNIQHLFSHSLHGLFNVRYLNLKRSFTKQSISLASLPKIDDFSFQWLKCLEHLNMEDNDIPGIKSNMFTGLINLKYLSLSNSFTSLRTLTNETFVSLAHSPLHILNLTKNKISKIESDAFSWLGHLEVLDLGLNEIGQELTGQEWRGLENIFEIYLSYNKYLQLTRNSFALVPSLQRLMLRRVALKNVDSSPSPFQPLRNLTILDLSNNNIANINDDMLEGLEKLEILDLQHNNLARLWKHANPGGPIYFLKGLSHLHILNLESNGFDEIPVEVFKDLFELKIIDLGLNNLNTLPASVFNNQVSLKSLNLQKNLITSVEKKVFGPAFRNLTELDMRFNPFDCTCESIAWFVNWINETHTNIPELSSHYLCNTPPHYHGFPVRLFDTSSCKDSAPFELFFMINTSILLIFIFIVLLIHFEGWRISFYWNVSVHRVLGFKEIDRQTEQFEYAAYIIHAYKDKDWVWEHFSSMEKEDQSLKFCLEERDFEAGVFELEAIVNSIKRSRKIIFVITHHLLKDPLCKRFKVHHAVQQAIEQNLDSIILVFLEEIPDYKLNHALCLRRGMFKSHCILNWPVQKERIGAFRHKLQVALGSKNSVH

Substance	inhibition of TLR9 sensing of ODN2006 (in words) (human TLR9)	effect on ISD70-induced IP-10 production at low dose (in words) (cGAS [2])	other results
G*C*G*G*T*A*T*C*C*A*T*G*T*C*C*C*A*G*G*C (GCGGTATCCATGTCCCAGGC; DNA, all phosphorothioate, methylation of C not given here) [C2-Mut1-PS]			inhibition of ISD70-driven IP-10 production (in words) (cGAS [1]): significantly decreased; inhibition of ISD45-driven ISRE-luciferase (in words) (mouse cGAS): significantly decreased
mC*mU*mU*mU*mA*G*T*C*G*T*A*G*T*T*G*mC*mU*mU*mC*mC (CUUUAGTCGTAGTTGCUUCC; sugars from the 5' end m5 d10 m5, all phosphorothioate, methylation of C not given here) [ASO11]	lacked the capacity to inhibit TLR9		effect on ISD70-induced IP-10 production at increased doses (in words) (cGAS [2]): blocked ISD70-induced IP-10 production
mG*mC*mG*mG*mU*A*T*A*C*A*G*G*T*C*C*mC*mA*mG*mG*mC (GCGGUATACAGGTCCCAGGC; sugars from the 5' end m5 d10 m5, all phosphorothioate, methylation of C not given here) [C2-Mut2]		increased inhibitory activity	
mG*mG*mU*mC*mU*T*G*G*C*T*T*C*G*T*G*mG*mA*mG*mC*mA (mG*mG*mU*mC*mU*dT*dG*dG*dC*dT*dT*dC*dG*dT*dG*mG*mA*mG*mC*mA; antisense) [ASO5]	significantly inhibited TLR9 sensing of ODN2006		inhibition of polyI:C sensing by TLR3 at 100 nM (in words) (TLR3): retained significant inhibition of polyL:C sensing
mU*mC*mC*mG*mG*C*C*T*C*G*G*A*G*T*C*mU*mC*mC*mA*mU (mU*mC*mC*mG*mG*dC*dC*dT*dC*dG*dG*dA*dG*dT*dC*mU*mC*mC*mA*mU; antisense) [ASO2up]		more potent inhibitor of ISD70-driven IP-10 production than ASO2	
mU*mC*mC*mG*mG*C*C*T*C*G*G*C*A*G*A*mU*mA*mU*mC*mG (mU*mC*mC*mG*mG*dC*dC*dT*dC*dG*dG*dC*dA*dG*dA*mU*mA*mU*mC*mG; antisense) [ASO2down]	significantly reduced TLR9 inhibition	significantly increased IP-10 production	inhibition of ISD70-driven IP-10 production (in words) (cGAS [1]): significantly less inhibitory than ASO2up
mU*mG*mA*mU*mU*C*C*A*A*A*G*C*C*A*G*mG*mG*mU*mU*mA (mU*mG*mA*mU*mU*dC*dC*dA*dA*dA*dG*dC*dC*dA*dG*mG*mG*mU*mU*mA) [ASO10]	significantly inhibited TLR9 sensing of ODN2006		effect on ISD70-induced IP-10 production at increased doses (in words) (cGAS [2]): blocked ISD70-induced IP-10 production
